Tests used:
Assay in all cases: HTRF cAMP assay in HEK293T
Type in all cases: cell-based
Olfr739 [1] = molecular target: T1, Olfr739 (Mus musculus, UniProt E9Q1P0); settings: partial agonist; range printed for four receptors together
T1 sequence (E9Q1P0 1-309): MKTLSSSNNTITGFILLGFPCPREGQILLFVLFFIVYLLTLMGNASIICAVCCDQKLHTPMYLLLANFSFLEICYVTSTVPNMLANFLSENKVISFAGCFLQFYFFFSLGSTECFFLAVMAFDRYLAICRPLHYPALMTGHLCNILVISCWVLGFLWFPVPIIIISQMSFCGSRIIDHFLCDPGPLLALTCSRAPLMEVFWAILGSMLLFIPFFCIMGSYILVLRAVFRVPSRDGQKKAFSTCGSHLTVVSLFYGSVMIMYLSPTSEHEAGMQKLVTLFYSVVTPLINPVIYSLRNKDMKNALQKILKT

Olfr748 = molecular target: T2, Olfr748 (Mus musculus, UniProt E9Q9Z0)
T2 sequence (E9Q9Z0 1-307): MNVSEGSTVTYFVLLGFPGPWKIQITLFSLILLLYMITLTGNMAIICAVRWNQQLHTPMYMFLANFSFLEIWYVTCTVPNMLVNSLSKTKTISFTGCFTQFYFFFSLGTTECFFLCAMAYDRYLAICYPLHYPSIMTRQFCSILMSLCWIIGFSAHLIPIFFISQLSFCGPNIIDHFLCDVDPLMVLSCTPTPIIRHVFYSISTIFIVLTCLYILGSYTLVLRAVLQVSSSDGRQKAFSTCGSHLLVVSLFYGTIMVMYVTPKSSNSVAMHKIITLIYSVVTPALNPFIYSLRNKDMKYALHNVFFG

Olfr743 = molecular target: T3, Olfr743 (Mus musculus, UniProt L7N1Y2)
T3 sequence (L7N1Y2 1-311): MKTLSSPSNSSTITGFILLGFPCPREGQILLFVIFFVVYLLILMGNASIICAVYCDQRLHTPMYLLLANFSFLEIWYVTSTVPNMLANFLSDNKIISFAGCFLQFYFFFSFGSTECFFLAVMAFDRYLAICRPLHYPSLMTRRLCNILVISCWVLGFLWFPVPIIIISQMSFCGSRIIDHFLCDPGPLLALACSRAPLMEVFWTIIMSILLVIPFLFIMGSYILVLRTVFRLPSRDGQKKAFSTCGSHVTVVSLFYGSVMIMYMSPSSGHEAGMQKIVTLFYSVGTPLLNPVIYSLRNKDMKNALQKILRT

Olfr739 [2] = molecular target: T1, Olfr739

Row | % of the maximum indole response (Olfr739 [1]) | EC50 (Olfr748) [µM] | EC50 (Olfr743) [µM] | EC50 (Olfr739 [2]) [µM] | SMILES
1 | 71-75% |  |  |  | COc1ccc2ccccc2c1 [compound 35, 2-methoxynaphthalene]
2 |  | 81 | 0.08 | 32 | c1ccc2[nH]ccc2c1 [compound 37, indole]

— publication doi:10.1101/760033v2 (biorxiv, 2019)
